Measured values as given in US11066709B2, “Methods for diagnosing and treating cancer by means of the expression status and mutational status of NRF2 and downstream target genes of said gene” (Genentech, Inc., priority 2016, dated 2021).
One block for each compound: values may come before it. Residues, ends and D or L forms follow the SMILES beside them. *: point of attachment. Cbz = O=C(OCc1ccccc1)*

Columns and labels:
Format in all cases: cell-based
[1] = test system: KEAP1 mutant cell lines; experiment: Viability of KEAP1 wild-type versus KEAP1 mutant cell lines
From the text: FIG. 56A is a graph showing the IC50 of the glutaminase inhibitor BPTES on KEAP1 wild-type cell lines versus KEAP1 mutant cell lines.
FIG. 56B is a graph showing the viability of KEAP1 wild-type cell lines versus KEAP1 mutant cell lines in response to the glutaminase inhibitor BPTES.
FIG. 57A is a graph showing the IC50 of the […] buthionine sylphoximine (BSO) on KEAP1 wild-type cell lines versus KEAP1 mutant cell lines.
FIG. 57B is a graph showing the viability of KEAP1 wild-type cell lines versus KEAP1 mutant cell lines in response to BSO.

[2] = test system: A549 cells; experiment: Colony growth of A549 cells in soft agar; details: Homo sapiens, read-out: IC50 for inhibiting colony growth of A549 cells in soft agar
Experimental: (§1) FIG. 62 is a series of photographs showing colony formation of KEAP1 mutant cell lines and KEAP1 wild-type cell lines grown in soft agar (anchorage independent conditions) in the presence of IGF1 R inhibitors linsitinib and NVP-AEW541, and in the presence or absence of glutathione.
(§2) Expression of IGF1 R was greater in KEAP1 mutant NSCLC cells relative to KEAP1 wild-type NSCLC cell lines. To test the effect of IGF1 R inhibition on KEAP1 mutant and KEAP1 wild-type cells, cell lines were treated with linsitinib, a potent and selective IGF1 R small molecule inhibitor. […] However, this compound was very potent at inhibiting colony growth of A549 cells in soft agar, having an IC50 of about 20 nM.

[3] = test system: three wild-type and three mutant KEAP1 NSCLC cell lines; experiment: Proliferation of wild-type and mutant KEAP1 NSCLC cell lines
[4] = test system: KEAP1 mutant cell lines and KEAP1 wild-type cell lines; experiment: Growth in soft agar (anchorage independent conditions) of a panel of NSCLC cell lines
Experimental: as §1, §2

[5] = test system: reactive oxygen species (ROS); experiment: ROS levels measured by H2DCF; details: exogenous glutathione, dichlorofluorescein staining
From the text: FIG. 49 is bar graph showing reactive oxygen species (ROS) levels under indicated conditions as measured using 2′,7′-dichlorodihydrofluorescein diacetate (H2DCF). Error bars represent standard deviation from triplicate wells.
FIG. 53 is a histogram showing increasing ROS levels in response to shNRF2 and/or erastin, as measured by H2DCF.

[6] = test system: KEAP1 mutant and KEAP1 wild-type cell lines; experiment: Colony formation in soft agar with or without NRF2 knockdown
Experimental: Representative areas of the plate were photographed. FIG. 44 is a series of bar graphs showing the quantified colony formation for each cell type and treatment group shown in FIG. 43. Error bars represent standard deviation from biological triplicate wells. FIG. 48 is a series of photographs showing A549 cells expressing NRF2sh10 shRNA plated into regular tissue culture dishes (top) or soft agar (bottom). Cells were treated with either vehicle or 500 ng/ml doxycycline, in the presence or absence of 2 mM N-acetyl cysteine (NAC).

[7] = test system: full-length NRF2; experiment: Effect of KEAP1 on NRF2 expression in transfected 293 cells (Western blot); details: 293 cells transfected with NRF2 and KEAP1 plasmids
Experimental: FIG. 23 is a set of immunoblots showing the effect of NRF2 exon 2 and exon 2+3 deletions on KEAP1 interaction. 293 cells were transfected with plasmids expressing FLAG-NRF2, Δe2 FLAG-NRF2, Δe2+3 FLAG-NRF2 or HA-KEAP1. 48 hours after transfection, cells were lysed, and either lysates (top gel) or anti-FLAG immunoprecipitations were analyzed by Western blotting using the indicated antibodies.
Plasmid DNAs were transfected into cells using Lipofectamine 2000 (ThermoFisher) and OptiMEM (Gibco) as recommended by manufacturer protocol. Lysates were prepared 2-3 days post transfection. Expression plasmids used were pRK5.NRF2, pRK5.NRF2δe2, pRK5.NRF2δe2,3, pRK5.NRF2.FLAG and pRK5.KEAP1.HA.

Compound: O=C(Cc1ccccc1)Nc1nnc(CCSCCc2nnc(NC(=O)Cc3ccccc3)s2)s1 [BPTES]
preferential toxicity for KEAP1 mutant cell lines [1]: did not display preferential toxicity

IC50 [2]: ~20 nM
Compound: C[C@]1(O)C[C@@H](c2nc(-c3ccc4ccc(-c5ccccc5)nc4c3)c3c(N)nccn32)C1 [linsitinib]
effect on proliferation [3]: little effect on proliferation | selectivity of growth inhibition for KEAP1 mutant cell lines [4]: selective growth inhibition in soft agar of this compound in KEAP1 mutant cell lines

Compound: CCCCS(=N)(=O)CCC(N)C(=O)O (stereo not drawn) [BSO, buthionine sylphoximine]
preferential toxicity for KEAP1 mutant cell lines [1]: did not display preferential toxicity

Compound: N[C@@H](CCC(=O)N[C@@H](CS)C(=O)NCC(=O)O)C(=O)O [reduced glutathione, glutathione]
ROS levels [5]: reduce reactive oxygen (ROS) levels | ability to form colonies in soft agar ([6]; all tested cell lines, 1 mM reduced glutathione): generally increased the ability of all tested cell lines to form colonies in soft agar | rescue of the consequences of NRF2 knockdown ([6]; soft agar, dox-induced NRF2 shRNA): unable to rescue the consequences of NRF2 knockdown

Compound: CC(C)C[C@@H](C=O)NC(=O)[C@H](CC(C)C)NC(=O)[C@H](CC(C)C)NC(=O)OCc1ccccc1 [MG132] (Cbz-Leu-Leu-Leu-aldehyde)
inhibitory effect of KEAP1 on full-length NRF2 expression [7]: mostly abolished
